US12527846B2, “Immunodominant proteins and fragments in multiple sclerosis” (UNIVERSITÄT ZÜRICH, priority 2018, dated 2026)
Ends that are not written are not given here.

Tests used:
TCC21.1 [1] = assay: Proliferation of TCC21.1 in response to GDP-L-fucose synthase peptides presented by autologous APCs; type: cell-based, human; conditions: 15-mer peptides overlapping by 10 AAs, presented by autologous PBMCs
TCC21.1 [2] = type: cell-based, human
Procedure: TCC21.1 was then tested with the complete decapeptide positional scanning library (200 mixtures; i.e. mixtures representing the 10 positions of a 10-mer and in each of the fixed positions one of the 20 L-amino acids), presented by BCL expressing DRB1*15:01 class II molecules. A similar response pattern was obtained with IL-10 release. Next, a biometrical analysis scoring matrix was generated by assigning numerical values to the stimulatory potential of each of the 20 defined AAs in each of the ten positions of the decapeptide library as previously described (Zhao et al., 2001). Here, the values were calculated as the log base 10 of the median GM-CSF (pg/ml) secretion of three independent experiments in the presence of mixtures, minus the secretion in the absence of mixtures (FIG. 3B). Based on a model of independent contribution of individual AAs to peptide antigen recognition, the predicted stimulatory score of a given peptide is the sum of the matrix values of each AA contained in the peptide at each position (Zhao et al., 2001). […] Using the new “harmonic boost” frame 1 and frame 2 matrices, all natural overlapping 10-mers peptides derived from the UniProt human protein database were scored and ranked as schematically shown in FIG. 2. […]

TCC14 [3] = assay: Cytokine secretion of TCC14 on recognition of the RASGRP2 peptide; type: cell-based, human; conditions: data not shown
TCC14 [4] = conditions: read-out: EC50 (antigen avidity); dose titration, BLS DR2b, proliferation after 72 h
TCC21.1 [5] = assay: Intracellular cytokine staining of TCC21.1 after peptide stimulation; type: cell-based, human
Procedure: Next, the response of TCC21.1 to GDP-L-fucose synthase peptides presented by autologous irradiated PBMCs and BCL was characterized. GDP-L-fucose synthase peptides presented by the two types of APCs were able to induce proliferation. The functional phenotype of this response was also analyzed. […] Unexpectedly, when peptides were presented by autologous BCL, they induced higher levels of IFNγ. In addition, TCC21.1 also released GM-CSF and IL-3 in response to GDP-L-fucose synthase peptides. The release of these two cytokines seems to be a specific feature of this TCC compared with other Th1, Th1* or Th1/2 TLCs that were generated from patients with different conditions. Intracellular cytokine staining confirmed the Th2 functional phenotype of TCC21.1 in response to GDP-L-fucose synthase (96-105, SEQ ID NO: 16). More than 60% of TCC21.1 cells were IL-4+ after stimulation with GDP-L-fucose synthase (96-105, SEQ ID NO: 16), while only around 12% were IFNγ+. Around 60% of the cells were GM-CSF+ and 47.7% of these also IL-4+.
For intracellular cytokine staining, TCC21.1 was analyzed 48 h after stimulation. After 5 h in presence of GolgiStop protein transport inhibitor (BD Biosciences), T cells were labeled with Live/Dead® Aqua (Invitrogen). Following fixation and permeabilization with Cytofix/Cytoperm (BD Biosciences), cells were stained with antibodies against CD4 (APC-Cy7, Biolegend), IFN-γ (FITC, Biolegend), IL-4 (PE, BD Bioscience), GM-CSF (APC, Biolegend) and IL-3 (PE, Biolegend) in PBS containing saponin and BSA, and analyzed by flow cytometry.

NVLHSAFEVGARKVV (listed as Homo sapiens) [SEQ ID NO: 17]
recognition by TCC21.1 (proliferation) (TCC21.1 [1]): recognized

VLHSAFEVGA (listed as Homo sapiens) [SEQ ID NO: 18]
GM-CSF release by TCC21.1 (stimulatory capacity) (TCC21.1 [2]; individual decapeptides at 5 pg/ml, presented by BLS cells expressing DRB1*15:01): induced GM-CSF release

LVRYWISAFP [SEQ ID NO: 33, LVRYWISAFP]
cytokine secretion by TCC14 (TCC14 [3]): secretion of Th2 cytokines and also of IFN-γ | EC50 (TCC14 [4]): 0.012 µM

VHMNDNVLHSAFEVG (listed as Homo sapiens) [SEQ ID NO: 14]
recognition by TCC21.1 (proliferation) (TCC21.1 [1]): recognized

NVLHSAFEVG [SEQ ID NO: 16, NVLHSAFEVG]
EC50 (TCC21.1 [2]): 0.2 µg/mL | GM-CSF+ TCC21.1 cells also IL-4+ (TCC21.1 [5]): 47.7% | TCC21.1 cells GM-CSF+ (TCC21.1 [5]): Around 60% | TCC21.1 cells IFNγ+ (TCC21.1 [5]): around 12% | TCC21.1 cells IL-4+ (TCC21.1 [5]): More than 60%
